Source: patent US5478723A, “Method and apparatus for determining the role of cytochrome P450 and related enzymes in the metabolism of drugs and other chemicals” (priority 1993, dated 1995)
“Also recorded” adds a separate entry of the source.

Experiments:
[1] = test system: CYP2D6 enzyme; conditions: background or known; cited from earlier work
[2] = test system: CYP2CMp; conditions: in vivo; cited from earlier work
[3] = test system: liver; conditions: in vivo; cited from earlier work
[4] = test system: CYP1A2 enzyme; conditions: known; cited from earlier work
[5] = test system: cytochrome P450; conditions: in vivo; cited from earlier work
[6] = test system: CYP2A6 enzyme; conditions: cited from earlier work
[7] = test system: CYP2D6; conditions: cited from earlier work
[8] = test system: CYP3A enzymes; conditions: cited from earlier work
[9] = test system: labor at term; assay: Clinical trials of sparteine for inducing labor at term; type: in vivo, human; conditions: of all Caucasians; expected from CYP2D6 deficiency
Experimental: The drug was not recommended for clinical use because these side effects were unpredictable and occurred at doses of […], which were well tolerated by other patients.

[10] = test system: labor at term; conditions: cited from earlier work
[11] = administered with ketoconazole or erythromycin; cited from earlier work

**Q.** Which “enzyme which metabolizes the drug” value [1] does the source give for `COc1ccc2c(c1)[C@]13CCCC[C@@H]1[C@H](C2)N(C)CC3` (stereo in doubt) [dextromethorphan] here?
**A.** The value was “metabolized by the CYP2D6 enzyme”.

**Q.** Which “enzyme which metabolizes the drug” value [2] does the source give for `CCC1(c2ccccc2)NC(=O)N(C)C1=O` (stereo not drawn) [Mephenytoin] here?
**A.** Its value is “metabolized by CYP2CMp”.

**Q.** What does the source list for `CC[C@@]1(c2ccccc2)NC(=O)N(C)C1=O` [S-mephenytoin]?
**A.** poor metabolizers among Caucasians [2]: less than 5%; poor metabolizers among Japanese subjects [2]: about 20%

**Q.** With `CC(=O)Nc1ccc(O)cc1` [acetaminophen] as the compound, how does the “origin of liver toxicity” value [3] read?
**A.** The value was “due to a toxic metabolite that is generated by cytochrome P450”.

**Q.** For `Cn1c(=O)c2c(ncn2C)n(C)c1=O` [caffeine], which “enzyme which metabolizes the drug” value [4] is on record?
**A.** Its value is “metabolized by the CYP1A2 enzyme”.

**Q.** With `CN/C(=N/CCSCc1nc[nH]c1C)NC#N` [cimetidine] as the compound, how does the “effect on cytochrome P450 activity” value [5] read?
**A.** The value was “depresses P450 activity”.

**Q.** For `O=c1ccc2ccccc2o1` [coumarin], which “enzyme which metabolizes the drug” value [6] is on record?
**A.** Its value is “metabolized by the CYP2A6 enzyme”.

**Q.** For `N=C(N)N1CCc2ccccc2C1` [debrisoquine], which “poor metabolizers among Caucasians” value ([7]; Caucasians) is on record?
**A.** The value was 5-10%.

**Q.** What about the “enzyme which metabolizes the drug” value ([7]; in vivo) of the same compound?
**A.** Its value is “metabolized by CYP2D6”.

**Q.** With `CC(=O)N1CCN(c2ccc(OCC3COC(Cn4ccnc4)(c4ccc(Cl)cc4Cl)O3)cc2)CC1` (stereo not drawn) [ketoconazole] as the compound, how does the “inhibition of CYP3A enzymes” value [8] read?
**A.** The value was “potent inhibitors of the CYP3A enzymes”.

**Q.** With `CCC1(c2ccccc2)C(=O)NC(=O)NC1=O` [phenobarbital] as the compound, how does the “effect on cytochrome P450 activity” value [5] read?
**A.** The value was “increase cytochrome P450 activity”.

**Q.** What about the “effect on metabolism of contraceptive steroids” value [5] of the same compound?
**A.** Its value is “increased rate of metabolism of contraceptive steroids”.

**Q.** For `CO[C@H]1/C=C/O[C@@]2(C)Oc3c(C)c(O)c4c(O)c(c(/C=N/N5CCN(C)CC5)c(O)c4c3C2=O)NC(=O)/C(C)=C\C=C\[C@H](C)[C@H](O)[C@@H](C)[C@@H](O)[C@@H](C)[C@H](OC(C)=O)[C@@H]1C` [rifampin], which “effect on cytochrome P450 activity” value [5] is on record?
**A.** The value was “increase cytochrome P450 activity”.

**Q.** What about the “effect on metabolism of contraceptive steroids” value [5] of the same compound?
**A.** Its value is “increased rate of metabolism of contraceptive steroids”.

**Q.** With `C1CCN2C[C@@H]3C[C@@H](CN4CCCC[C@@H]34)[C@H]2C1` [sparteine] as the compound, how does the expected poor metabolizers [9] read?
**A.** The expected poor metabolizers was 5-10%.

**Q.** What about the “potency for inducing labor at term” value ([10]; clinical trials, United States, late 1950's) of the same compound?
**A.** The value was “as potent as oxytocin”.

**Q.** And the “patients with dramatically increased duration and intensity of action” value ([10]; of all patients tested)?
**A.** The value was “about 7%”.

**Q.** And the “patients with exaggerated response” value ([10]; patients administered during clinical trials)?
**A.** Its value is 7%.

**Q.** And the “side effects (exaggerated response)” value ([10]; some patients)?
**A.** Its value is “prolonged uterine contraction and abnormally rapid labor; also recorded: caused death of the fetus”.

**Q.** With `CC(C)(C)c1ccc(C(O)CCCN2CCC(C(O)(c3ccccc3)c3ccccc3)CC2)cc1` (stereo not drawn) [terfenadine] as the compound, how does the cardiac adverse reaction [11] read?
**A.** The cardiac adverse reaction was “Torsades de Points”.
